In patent US20220242850A1, “PHTHALAZIN-1-ONE DERIVATIVES USEFUL AS GRK2 INHIBITORS” (Janssen Pharmaceutica NV, priority 2019, published 2022):
“And” between values parts separate entries of the source, which are not always exact repeats. Equal entries are not always repeated.

How the values were obtained:
GRK2 [1] = biological target: T1, GRK2 (Homo sapiens, UniProt P25098); assay: GRK2 Transcreener Assay; assay type: biochemical; details: 10 nM GRK2, 10 uM ATP, 150 uM peptide substrate
T1 sequence (P25098 1-689): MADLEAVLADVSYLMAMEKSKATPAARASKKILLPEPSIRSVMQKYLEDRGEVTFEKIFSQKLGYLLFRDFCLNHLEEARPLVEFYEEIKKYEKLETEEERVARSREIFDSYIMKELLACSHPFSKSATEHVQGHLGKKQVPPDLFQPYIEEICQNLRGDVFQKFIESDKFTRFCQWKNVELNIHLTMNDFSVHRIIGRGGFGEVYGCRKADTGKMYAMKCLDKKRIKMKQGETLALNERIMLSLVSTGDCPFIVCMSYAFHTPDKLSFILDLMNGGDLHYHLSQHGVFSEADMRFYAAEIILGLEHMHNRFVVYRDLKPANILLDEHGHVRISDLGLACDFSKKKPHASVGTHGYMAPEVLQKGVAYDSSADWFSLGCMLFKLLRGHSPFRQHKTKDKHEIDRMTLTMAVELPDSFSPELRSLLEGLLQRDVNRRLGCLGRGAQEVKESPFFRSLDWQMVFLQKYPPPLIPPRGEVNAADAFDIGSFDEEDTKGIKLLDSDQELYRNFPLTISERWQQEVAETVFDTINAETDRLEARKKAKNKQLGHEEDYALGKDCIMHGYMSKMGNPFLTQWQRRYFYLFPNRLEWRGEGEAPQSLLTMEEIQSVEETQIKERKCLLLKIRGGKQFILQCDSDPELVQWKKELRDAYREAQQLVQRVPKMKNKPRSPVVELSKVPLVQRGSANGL
Procedure: Positive and negative control wells received an equal volume of DMSO. The final DMSO concentration in the assay is 1%.
The plate was placed in centrifuge equipped with a spin-bucket rotor and spun for 1 min at 1000 rpm.
GRK2 enzymatic reactions were initiated with the addition of 2 μL/well of 50 nM GRK2 in assay buffer. Plates were centrifuged for 1 min at 1000 rpm. For negative control wells, the order of reagent addition was reversed: 10 μL/well ADP detection mix (see below) was added first, followed by the addition of 2 μL/well of the GRK2 solution. Reaction mixtures were incubated at ambient temperature for 2 hours.
Following incubation, the reactions were quenched with 10 μL/well of the Transcreener ADP detection mix. […] The plates were then centrifuged for 1 min at 1000 rpm.
Fluorescence polarization values of the reaction mixtures were read on a Safire II plate reader after a 60 min incubation at ambient temperature. Excitation wavelength=590 nm: emission wavelength=650 nm.
The fluorescence polarization data were converted to % activity as follows:
% activity=(sample−NC)/(PC−NC)*100
where NC is the mean of negative control (ADP detection mix added prior to GRK2 addition), and PC is the mean of positive control (GRK2 reaction without inhibitor). IC50 values are determined from a 4-parameter fit, using the following equation:
(§1) Y=Bottom+(Top−Bottom)/(1+10^(Log IC50-X)*Hill slope)),
(§2) where X=log10 of the compound concentration.

GRK2 [2] = biological target: T1, GRK2; assay: hGRK2 LANCE Ultra In Vitro Assay; assay type: biochemical; details: hGRK2 LANCE Ultra Assay IC50, 10 nM GRK2; ATP 30 or 600 μM (not stated which)
Procedure: G-protein coupled receptor kinases (GR Kinases) desensitize activated G-protein coupled receptors (GPCRs), by phosphorylation of cytoplasmic loops or carboxyl-terminal tails of GPCRs. GRK2 is one of the 6 different GR kinases and is implicated in heart failure and diabetes.
This assay is sensitive and requires as low as 10 nM enzyme, in a total volume of 10 μL. In addition, the ATP concentration can be varied over a broad range, without interfering with the assay or changing the assay condition. […] Testing inhibitors routinely at both high and low ATP concentrations also enables identification of potential non-ATP competitive inhibitors.
Paroxetine was used as the reference compound in this assay.
Test compounds were dissolved in DMSO at 1 mM and were 3-fold serial diluted. The compound DMSO solutions were then added (100 nL) into a plate well using an acoustic dispenser. To each well was then added 20 nM GRK2 (5 μL) in assay buffer (20 mM HEPES, pH 7.5, 10 mM MgCl2, 0.001% Tween-20®). The plate was sealed and centrifuged at 1000 rpm for 1 min. The plate and wells containing a mixture of GRK2 and test compound were incubated at ambient temperature for 30 min (prior to initializing the enzymatic reaction).
Enzyme reactions were initiated by the addition of 4.9 μL Substrates/Eu-Ab mix to each well. […] Final concentrations of reagents in the assays were as follows: 20 mM HEPES, pH 7.5; 10 mM MgCl2; 0.001% Tween-2® (w/v), 30 or 600 μM ATP; 200 nM ULight-peptide; 4 nM Eu-Ab; 10 nM GRK2; and 1% DMSO.
The plates were sealed and centrifuged at 1000 rpm for 1 min. For reactions at low ATP concentration (30 μM), reaction mixtures were incubated at ambient temperature for 120 min. For reactions at high ATP concentration (600 μM), reaction mixtures were incubated at ambient temperature for 60 min.
The enzyme reactions were quenched by addition of 10 μL of 12 mM EDTA in 1× LANCE detection solution to each well. The plates were then incubated at ambient temperature for 30 min.
The raw HTRF data were converted to % active as follows:
% active=(sample−NC)/(PC−NC)*100
where NC is the mean of negative control (reactions without GRK2), and PC is the mean of positive control (reactions with GRK2 but without inhibitor). IC50 values were determined from a 4-parameter fit, using the following equation:
as §1, §2

SMILES | IC50 (GRK2 [1]) | IC50 (GRK2 [2]) [nM]
COC(=O)CCNC(=O)c1cccc(Cn2ncc3ccc(-c4cn[nH]c4)cc3c2=O)c1 [Compound 24, Methyl 3-[[3-[[1-oxo-7-(1H-pyrazol-4-yl)phthalazin-2-yl]methyl]benzoyl]amino]propanoate] | 7.4 nM | 
O=C(O)Cc1cccc(Cn2ncc3ccc(-c4cn[nH]c4)cc3c2=O)c1 [Compound 23, 2-[3-[[1-oxo-7-(1H-pyrazol-4-yl)phthalazin-2-yl]methyl]phenyl]acetic acid] | 1300 nM | 
O=C(O)CCNC(=O)c1cccc(Cn2ncc3ccc(-c4cn[nH]c4)cc3c2=O)c1 [Compound 26, 3-[[3-[[1-Oxo-7-(1H-pyrazol-4-yl)phthalazin-2-yl]methyl]benzoyl]amino]propanoic acid] | 520 nM | 
COC(=O)Cc1cccc(Cn2ncc3ccc(-c4cn[nH]c4)cc3c2=O)c1 [Compound 25, Methyl 2-[3-[[1-oxo-7-(1H-pyrazol-4-yl)phthalazin-2-yl]methyl]phenyl]acetate] | 220 nM | 
COc1cccc(C(C)n2ncc3ccc(-c4cn[nH]c4)cc3c2=O)c1 (single isomer, unassigned) [Compound 17, 2-[1-(3-Methoxyphenyl)ethyl]-7-(1H-pyrazol-4-yl)phthalazin-1-one] |  | 1700
Cc1n[nH]cc1-c1ccc2cnn([C@H](C)c3cccc(OCCOC4CC4)c3)c(=O)c2c1 (single isomer, unassigned) [Compound 31] | 6200 nM | 
COc1cccc(Cl)c1CNC(=O)c1cccc(Cn2ncc3ccc(-c4cn[nH]c4)cc3c2=O)c1 [Compound 1, N-[(2-Chloro-6-methoxy-phenyl)methyl]-3-[[1-oxo-7-(1H-pyrazol-4-yl)phthalazin-2-yl]methyl]benzamide] |  | < 5
C#CCNC(=O)c1cccc(Cn2ncc3ccc(-c4cn[nH]c4)cc3c2=O)c1 [Compound 8, 3-[[1-Oxo-7-(1H-pyrazol-4-yl)phthalazin-2-yl]methyl]-N-prop-2-ynyl-benzamide] |  | 10
COC(=O)COc1cccc([C@@H](C)n2ncc3ccc(-c4ccnc(N)n4)cc3c2=O)c1 (single isomer, unassigned) [Compound 27] | 1900 nM | 
CCC(c1cccc(OC)c1)n1ncc2ccc(-c3cn[nH]c3)cc2c1=O (stereo not drawn) [Compound 32, 2-[1-(3-Methoxyphenyl)propyl]-7-(1H-pyrazol-4-yl)phthalazin-1-one] | 1600 nM | 
O=C(NC1CC1)c1cc(Cn2ncc3ccc(-c4cn[nH]c4)cc3c2=O)ccc1F [Compound 13, N-Cyclopropyl-2-fluoro-5-[[1-oxo-7-(1H-pyrazol-4-yl)phthalazin-2-yl]methyl]benzamide] |  | 18
COc1cccc(Cn2ncc3ccc(-c4c[nH]nc4C)cc3c2=O)c1 [Compound 35, 2-[(3-Methoxyphenyl)methyl]-7-(3-methyl-1H-pyrazol-4-yl)phthalazin-1-one] | 140 nM and 120 nM | 
C[C@H](c1cccc(OCC(=O)O)c1)n1ncc2ccc(-c3cn[nH]c3)cc2c1=O (single isomer, unassigned) [Compound 29] | 47 nM | 
COc1cccc(C(CO)n2ncc3ccc(-c4cn[nH]c4)cc3c2=O)c1 (stereo not drawn) [Compound 15, 2-[2-Hydroxy-1-(3-methoxyphenyl)ethyl]-7-(1H-pyrazol-4-yl)phthalazin-1-one] |  | 33
COC(=O)COc1cccc(Cn2ncc3ccc(-c4cn[nH]c4)cc3c2=O)c1 [Compound 37, Methyl 2-[3-[[1-oxo-7-(1H-pyrazol-4-yl)phthalazin-2-yl]methyl]phenoxy]acetate] | < 5 nM | 
C[C@H](c1cccc(OCCOC2CC2)c1)n1ncc2ccc(-c3cn[nH]c3)cc2c1=O (single isomer, unassigned) [Compound 30] | 660 nM | 
O=C(COc1cccc(Cn2ncc3ccc(-c4cn[nH]c4)cc3c2=O)c1)N1CCOCC1 [Compound 6, 2-[[3-(2-Morpholino-2-oxo-ethoxy)phenyl]methyl]-7-(1H-pyrazol-4-yl)phthalazin-1-one] |  | 8
[2H]C([2H])(Oc1cccc([C@@H](C)n2ncc3ccc(-c4cn[nH]c4)cc3c2=O)c1)C(=O)O (single isomer, unassigned) [Compound 20] | 190 nM | 
C#CCCNC(=O)c1cccc(Cn2ncc3ccc(-c4cn[nH]c4)cc3c2=O)c1 [Compound 4, N-But-3-ynyl-3-[[1-oxo-7-(1H-pyrazol-4-yl)phthalazin-2-yl]methyl]benzamide] |  | 5.5
O=c1c2cc(-c3cn[nH]c3)ccc2cnn1Cc1cccc(OC(F)(F)F)c1 [Compound 39, 7-(1H-Pyrazol-4-yl)-2-[[3-(trifluoromethoxy)phenyl]methyl]phthalazin-1-one] | > 50000 nM | 
COc1cccc([C@@H](C)n2ncc3ccc(-c4ccnc(N)n4)cc3c2=O)c1 (single isomer, unassigned) [Compound 33] | 7700 nM | 
COc1cccc(Cn2ncc3ccc(-c4cn[nH]c4)c(F)c3c2=O)c1 [Compound 9, 8-Fluoro-2-[(3-methoxyphenyl)methyl]-7-(1H-pyrazol-4-yl)phthalazin-1-one] |  | 11
O=C(O)COc1cccc(Cn2ncc3ccc(-c4cn[nH]c4)cc3c2=O)c1 [Compound 38, 2-[3-[[1-Oxo-7-(1H-pyrazol-4-yl)phthalazin-2-yl]methyl]phenoxy]acetic acid] | 8 nM | 
COc1cccc(Cn2ncc3ccc(-c4cn[nH]c4)c(C#N)c3c2=O)c1 [Compound 10, 3-[(3-Methoxyphenyl)methyl]-4-oxo-6-(1H-pyrazol-4-yl)phthalazine-5-carbonitrile] |  | 11
C[C@H](c1cccc(OCC(=O)O)c1)n1ncc2ccc(-c3ccnc(N)n3)cc2c1=O (single isomer, unassigned) [Compound 22] | 11000 nM | 
O=c1c2cc(-c3cn[nH]c3)ccc2cnn1Cc1ccccc1 [Compound 40, 2-Benzyl-7-(1H-pyrazol-4-yl)phthalazin-1-one] | 300 nM | 
Cc1n[nH]cc1-c1ccc2cnn([C@H](C)c3cccc(OCC(=O)O)c3)c(=O)c2c1 (single isomer, unassigned) [Compound 28] | 410 nM | 
COc1cccc(Cn2ncc3ccc(-c4ccnc(N)n4)cc3c2=O)c1 [Compound 34, 7-(2-Aminopyrimidin-4-yl)-2-[(3-methoxyphenyl)methyl]phthalazin-1-one] | 890 nM | 
COc1cccc(Cn2ncc3ccc(-c4ccoc4)cc3c2=O)c1 [Compound 36, 7-(3-Furyl)-2-[(3-methoxyphenyl)methyl]phthalazin-1-one] | 900 nM | 
[2H]C([2H])(Oc1cccc([C@@H](C)n2ncc3ccc(-c4cn[nH]c4)cc3c2=O)c1)C(=O)OC (single isomer, unassigned) [Compound 21] | 23 nM | 
